Here are results for six molecules from patent US12129235B2, “TSPO binders” (The University Court of the University of Glasgow, priority 2018, dated 2024).

Molecules are shown by their SMILES. Read-outs that look alike come from different tables or passages of the source.

The subject of data set [1] is TSPO. Conditions: literature; cited from earlier work.
The test system of data set [2] is TSPO. The settings on record: literature (Ikawa et al.); cited from earlier work.
Data set [3] has as its system TSPO. The data set is described as follows: Competition binding assay against ^3H-PK11195 in human heart homogenate (HAB, MAB, LAB). The settings on record: for LAB:HAB ratio: rs6971 polymorphism; for difference between HAB and LAB in individually calculated affinity values: unpaired t-test. As for the experimental part: (§1) All studies using human tissue were conducted in accordance with the East of Scotland Research Ethics Service (Edinburgh Brain Bank, 11/ES/0022). […] To exclude sex dependent differences in TSPO binding (Fairweather et al.), only male samples were utilized in this study. Sample tissues were homogenized in 10× w/v buffer (50 mM Tris-Base, pH 7.4, 4° C.) before centrifugation (32,000 g, 10 min, 4° C.). Tissue pellets were then resuspended in 10× w/v buffer and centrifuged again before re-suspending them in buffer (2 mL). Samples were then assessed for protein concentration using the Bio-Rad protein assay (Bio-Rad, USA), aliquoted and stored at −80° C. until use.
(§2) Competition binding assays were carried out as previously reported (Blair et al. (Med. Chem. Commun.)). […] A concentration of 8 μM was used to determine non-specific binding for each ligand. Binding was terminated with the addition of 2 mL of ice cold buffer before being immediate filtered over a Whatman GF/B filters (Whatman, UK) pre-treated with 0.3% polyethylenimine (Sigma-Aldrich, USA) using a Brandel harvester (Brandel, USA). Filter paper was then removed, placed into 2.5 mL of Optiphase HiSafe 3 (Perkin Elmer, USA) and counted 48 hours later on a Hidex 300 SL (Hidex, Finland). […] All binding assays were performed in triplicate. GraphPad Prism version 6 (GraphPad Software, USA) was used to fit all binding affinity curves. A comparison of a one-site and two-site fitting was made using the least squares algorithm and model selection was compared using an F test. The null hypothesis (that one-site fitting as more suitable) was rejected if p<0.05. The mean % SB normalized to the minimum inhibition of each group (HAB, MAB or LAB) was used to determine whether a one-site or two-site fitting was appropriate, and to subsequently calculate LAB:HAB ratio. Affinity values (Ki) were calculated by fitting individual tissue samples based on the mean group fitting.

The test system of data set [4] is TSPO. As to the kind of experiment: Competition binding assay against ^3H-PK11195 in human brain homogenate (HAB, MAB, LAB). Conditions: for LAB:HAB affinity ratio: rs6971 polymorphism; for difference between HAB and LAB in individually calculated affinity values: unpaired t-test. As for the experimental part: as §1, §2
Data set [5] is described as follows: Pharmacokinetic/Pharmacodynamic study of PK11195 tissue exposure. It is filed as in vivo. Conditions: Sprague-Dawley, rat, rats, mean±SEM, n=3, read-out: exposure level.
The conditions of data set [6]: in humans; literature; cited from earlier work.
In data set [7] the target is TSPO (Homo sapiens, UniProt P30536). As to the kind of experiment: Competition binding assay against ^3H-PK11195 in human brain homogenate (HAB, MAB, LAB). Set-up: other: human brain; other: human heart. As for the experimental part: as §1
TSPO (Homo sapiens, UniProt P30536), sequence (P30536 whole entry): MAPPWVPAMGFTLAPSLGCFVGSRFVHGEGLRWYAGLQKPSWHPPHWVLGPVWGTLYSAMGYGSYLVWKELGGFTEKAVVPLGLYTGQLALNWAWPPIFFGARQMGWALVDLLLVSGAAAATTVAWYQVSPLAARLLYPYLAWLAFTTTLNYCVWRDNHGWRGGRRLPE
Competition binding assays were carried out as previously reported (Blair et al. (Med. Chem. Commun.)). […] A concentration of 8 μM was used to determine non-specific binding for each ligand. Binding was terminated with the addition of 2 mL of ice cold buffer before being immediate filtered over a Whatman GF/B filters (Whatman, UK) pre-treated with 0.3% polyethylenimine (Sigma-Aldrich, USA) using a Brandel harvester (Brandel, USA). Filter paper was then removed, placed into 2.5 mL of Optiphase HiSafe 3 (Perkin Elmer, USA) and counted 48 hours later on a Hidex 300 SL (Hidex, Finland). […] Affinity values (Ki) were calculated by fitting individual tissue samples based on the mean group fitting.

For the molecule `CC[C@@H](C)N([11CH3])C(=O)c1nc(-c2ccccc2Cl)c2ccccc2n1` [^11C-ER176], the “LAB:HAB ratio in vitro” value in data set [1] is recorded as 1.3. In addition, in data set [2], the “LAB:HAB ratio in vivo” value is recorded as “around 3”.

Turning to `CCN(CC)C(=O)c1nc2ccccc2c(-c2ccccc2)c1CF` [AB5186], in data set [3], the “LAB:HAB ratio” value is given as 7. Moreover, in data set [4], the “LAB:HAB affinity ratio” value is recorded as 9; the “difference between HAB and LAB in individually calculated affinity values” is listed as “significant difference”.

For `CCC(C)N(C)C(=O)c1cc2ccccc2c(-c2ccccc2Cl)n1` (centres unmarked) [PK11195], the concentration at 1 h in data set [5] (brain) amounted to 11 ± 1.99 ng/mL; in data set [5] (heart), 29.3 ± 3.93 ng/mL; in data set [5] (lungs) it was 38.9 ± 2.24 ng/mL. Also, the “difference between HAB and LAB in individually calculated affinity values” in data set [3] and in data set [4] was “no significant difference” throughout.

Regarding `CCC(C)N(C)C(=O)c1cc2ccccc2c(-c2ccccc2Cl)n1` (centres unmarked) [^11C-PK11195], the plasma free fraction in data set [6] is listed as 1-6%.

As usually defined, the Ki is a dissociation constant, usually derived from enzyme kinetics or from competition with a known ligand. As for `CC[C@@H](C)N(C)C(=O)c1nc2ccccc2c(-c2ccccc2)c1CF` [LW223, (R)-(N-sec-Butyl)-3-fluoromethyl-N-methyl-4-phenylquinoline-2-carboxamide], in data set [3], the “LAB:HAB ratio” value worked out at 1; the “difference between HAB and LAB in individually calculated affinity values” was “no significant difference”. The “mean affinity relative to PK11195” value in data set [7] was 2 times. For the same molecule, the Ki in data set [7] (read-out: mean affinity (Ki)) was determined as 0.6 nM. Also, in data set [4], the “LAB:HAB affinity ratio” value is given as 1; the “difference between HAB and LAB in individually calculated affinity values” is recorded as “no significant difference”.

As for `COc1ccccc1CN(C(C)=O)c1cnccc1Oc1ccccc1` [PBR28], the “LAB:HAB ratio” value in data set [3] came to 48. For the same molecule, in data set [4], the “LAB:HAB affinity ratio” value came out at 49; the “difference between HAB and LAB in individually calculated affinity values” is listed as “significant difference”.
